In PubChem BioAssay (NCI):
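Dose response: 5 concentrations. Exposure: 48 h. Format: 96-well plates. Endpoint: linear interpolation; highest concentration if not reached. GI50 is the concentration that inhibits growth by half. TGI is the concentration that stops growth completely.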

How the values were obtained:
Assay in all cases: NCI-60 cell line screen, 48 h
[1] = test system: 786-0 renal
[2] = test system: A498 renal
[3] = test system: A549 NSCLC
[4] = test system: ACHN renal
[5] = test system: BT-549 breast
[6] = test system: CAKI-1 renal
[7] = test system: CCRF-CEM leukemia
[8] = test system: COLO 205 colon
[9] = test system: DU-145 prostate
[10] = test system: EKVX NSCLC
[11] = test system: HCT-116 colon
[12] = test system: HCT-15 colon
[13] = test system: HL-60(TB) leukemia
[14] = test system: HOP-62 NSCLC
[15] = test system: HOP-92 NSCLC
[16] = test system: HS 578T breast
[17] = test system: HT29 colon
[18] = test system: IGROV1 ovarian
[19] = test system: K-562 leukemia
[20] = test system: KM12 colon
[21] = test system: LOX IMVI melanoma
[22] = test system: M14 melanoma
[23] = test system: MALME-3M melanoma
[24] = test system: MCF7 breast
[25] = test system: MDA-MB-231 breast
[26] = test system: MDA-MB-435
[27] = test system: MOLT-4 leukemia
[28] = test system: NCI-H226 lung
[29] = test system: NCI-H23 lung
[30] = test system: NCI-H460 lung
[31] = test system: NCI-H522 lung
[32] = test system: NCI/ADR-RES ovarian
[33] = test system: OVCAR-3 ovarian
[34] = test system: OVCAR-4 ovarian
[35] = test system: OVCAR-5 ovarian
[36] = test system: OVCAR-8 ovarian
[37] = test system: PC-3 prostate
[38] = test system: RPMI-8226 leukemia
[39] = test system: RXF 393 renal
[40] = test system: SF-268 CNS
[41] = test system: SF-295 CNS
[42] = test system: SF-539 CNS
[43] = test system: SK-MEL-2 melanoma
[44] = test system: SK-MEL-28 melanoma
[45] = test system: SK-MEL-5 melanoma
[46] = test system: SK-OV-3 ovarian
[47] = test system: SN12C renal
[48] = test system: SNB-19 CNS
[49] = test system: SNB-75 CNS
[50] = test system: SR leukemia
[51] = test system: SW-620 colon
[52] = test system: T-47D breast
[53] = test system: TK-10 renal
[54] = test system: U251 CNS
[55] = test system: UACC-257 melanoma
[56] = test system: UACC-62 melanoma
[57] = test system: UO-31 renal
[58] = test system: HCC-2998 colon

COc1ccc2cc(-c3cc4c(oc3=O)-c3ccccc3OC4O)c(=O)oc2c1 (configuration not stated)
GI50 [1]: 25.4 µM | TGI [1]: 41.5 µM | GI50 [2]: 17.3 µM | TGI [2]: 33.5 µM | GI50 [3]: 14.5 µM | TGI [3]: 28.2 µM | GI50 [4]: 16.1 µM | TGI [4]: 30.1 µM | GI50 [5]: 14.7 µM | TGI [5]: 28.2 µM | GI50 [6]: 14.9 µM | TGI [6]: 29.8 µM | GI50 [7]: 19.7 µM | TGI [7]: 64.7 µM | GI50 [8]: 16.1 µM | TGI [8]: 33.4 µM | GI50 [9]: 14.3 µM | TGI [9]: 27.4 µM | GI50 [10]: 15.2 µM | TGI [10]: 32.8 µM | GI50 [11]: 20.2 µM | TGI [11]: 34.7 µM | GI50 [12]: 15.8 µM | TGI [12]: 32 µM | GI50 [13]: > 100 µM | TGI [13]: > 100 µM | GI50 [14]: 20.3 µM | TGI [14]: 35.4 µM | GI50 [15]: 10.2 µM | TGI [15]: 24.7 µM | GI50 [16]: 20.8 µM | TGI [16]: 45.1 µM | GI50 [17]: 17.1 µM | TGI [17]: 31.5 µM | GI50 [18]: 16.9 µM | TGI [18]: 34 µM | GI50 [19]: 92.9 µM | TGI [19]: > 100 µM | GI50 [20]: 18.2 µM | TGI [20]: 34.9 µM | GI50 [21]: 15.9 µM | TGI [21]: 31.2 µM | GI50 [22]: 22.1 µM | TGI [22]: 43.8 µM | GI50 [23]: 19.3 µM | TGI [23]: 36.8 µM | GI50 [24]: 17.1 µM | TGI [24]: 34.1 µM | GI50 [25]: 17.9 µM | TGI [25]: 36.1 µM | GI50 [26]: 16.4 µM | TGI [26]: 36 µM | GI50 [27]: 50 µM | TGI [27]: > 100 µM | GI50 [28]: 16.1 µM | TGI [28]: 34 µM | GI50 [29]: 17.7 µM | TGI [29]: 33.4 µM | GI50 [30]: 16.7 µM | TGI [30]: 34.7 µM | GI50 [31]: 17 µM | TGI [31]: 37.6 µM | GI50 [32]: 17.7 µM | TGI [32]: 31.7 µM | GI50 [33]: 15.4 µM | TGI [33]: 30.6 µM | GI50 [34]: 12.3 µM | TGI [34]: 28.9 µM | GI50 [35]: 17.3 µM | TGI [35]: 31.3 µM | GI50 [36]: 17.5 µM | TGI [36]: 35.3 µM | GI50 [37]: 14.7 µM | TGI [37]: 28.3 µM | GI50 [38]: 13.4 µM | TGI [38]: 58.7 µM | GI50 [39]: 18.7 µM | TGI [39]: 36.4 µM | GI50 [40]: 16.9 µM | TGI [40]: 33.8 µM | TGI [41]: 15.3 µM | GI50 [42]: 15.2 µM | TGI [42]: 29.2 µM | GI50 [43]: 15.6 µM | TGI [43]: 31.4 µM | GI50 [44]: 16.7 µM | TGI [44]: 32.2 µM | GI50 [45]: 13.2 µM | TGI [45]: 26.9 µM | GI50 [46]: 17.1 µM | TGI [46]: 32.3 µM | GI50 [47]: 17.2 µM | TGI [47]: 32.2 µM | GI50 [48]: 16.2 µM | TGI [48]: 30.5 µM | GI50 [49]: 5.73 µM | TGI [49]: 23.4 µM | GI50 [50]: 79.7 µM | TGI [50]: > 100 µM | GI50 [51]: 15.9 µM | TGI [51]: 29.7 µM | GI50 [52]: 13 µM | TGI [52]: 33.6 µM | GI50 [53]: 19.9 µM | TGI [53]: 37 µM | GI50 [54]: 16.4 µM | TGI [54]: 31.4 µM | GI50 [55]: 16.2 µM | TGI [55]: 32.3 µM | GI50 [56]: 16.2 µM | TGI [56]: 30.4 µM | GI50 [57]: 17.5 µM | TGI [57]: 33.4 µM

Cc1ccc(-c2cc3c(SCC(=O)Nc4cc(C(F)(F)F)ccc4Cl)nccn3n2)cc1
GI50 [1]: 10.1 µM | TGI [1]: 87.2 µM | GI50 [2]: > 100 µM | TGI [2]: > 100 µM | GI50 [4]: 6.17 µM | TGI [4]: > 100 µM | GI50 [5]: > 100 µM | TGI [5]: > 100 µM | GI50 [6]: > 100 µM | TGI [6]: > 100 µM | GI50 [8]: > 100 µM | TGI [8]: > 100 µM | GI50 [9]: > 100 µM | TGI [9]: > 100 µM | GI50 [58]: > 100 µM | TGI [58]: > 100 µM | GI50 [11]: 5.01 µM | TGI [11]: > 100 µM | GI50 [12]: > 100 µM | TGI [12]: > 100 µM | GI50 [13]: > 100 µM | TGI [13]: > 100 µM | GI50 [14]: 58.2 µM | TGI [14]: > 100 µM | GI50 [15]: 14.1 µM | TGI [15]: > 100 µM | GI50 [16]: 11.7 µM | TGI [16]: > 100 µM | GI50 [18]: > 100 µM | TGI [18]: > 100 µM | GI50 [19]: > 100 µM | TGI [19]: > 100 µM | GI50 [20]: > 100 µM | TGI [20]: > 100 µM | GI50 [21]: > 100 µM | TGI [21]: > 100 µM | GI50 [22]: > 100 µM | TGI [22]: > 100 µM | GI50 [23]: > 100 µM | TGI [23]: > 100 µM | GI50 [24]: > 100 µM | TGI [24]: > 100 µM | GI50 [25]: 94.5 µM | TGI [25]: > 100 µM | GI50 [26]: > 100 µM | TGI [26]: > 100 µM | GI50 [27]: > 100 µM | TGI [27]: > 100 µM | GI50 [28]: > 100 µM | TGI [28]: > 100 µM | GI50 [29]: > 100 µM | TGI [29]: > 100 µM | GI50 [30]: 81.6 µM | TGI [30]: > 100 µM | GI50 [32]: > 100 µM | TGI [32]: > 100 µM | GI50 [33]: > 100 µM | TGI [33]: > 100 µM | GI50 [34]: 2.86 µM | TGI [34]: > 100 µM | GI50 [35]: > 100 µM | TGI [35]: > 100 µM | GI50 [36]: 29.8 µM | TGI [36]: > 100 µM | GI50 [37]: > 100 µM | TGI [37]: > 100 µM | GI50 [38]: > 100 µM | TGI [38]: > 100 µM | GI50 [39]: > 100 µM | TGI [39]: > 100 µM | GI50 [40]: 79.4 µM | TGI [40]: > 100 µM | GI50 [41]: > 100 µM | TGI [41]: > 100 µM | GI50 [42]: 8.5 µM | TGI [42]: > 100 µM | GI50 [43]: > 100 µM | TGI [43]: > 100 µM | GI50 [44]: > 100 µM | TGI [44]: > 100 µM | GI50 [45]: > 100 µM | TGI [45]: > 100 µM | GI50 [46]: 69.4 µM | TGI [46]: > 100 µM | GI50 [47]: > 100 µM | TGI [47]: > 100 µM | GI50 [48]: 30.9 µM | TGI [48]: > 100 µM | GI50 [49]: 23.5 µM | TGI [49]: > 100 µM | GI50 [50]: > 100 µM | TGI [50]: > 100 µM | GI50 [51]: > 100 µM | TGI [51]: > 100 µM | GI50 [52]: 23.6 µM | TGI [52]: > 100 µM | GI50 [53]: > 100 µM | TGI [53]: > 100 µM | GI50 [54]: 3.4 µM | TGI [54]: > 100 µM | GI50 [56]: > 100 µM | TGI [56]: > 100 µM | GI50 [57]: > 100 µM | TGI [57]: > 100 µM
